Laboratory results: PubChem BioAssay (NCI)
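Results reflect a 48-hour exposure of cells in 96-well plates to compound at five concentrations. GI50 = concentration required for 50% inhibition of growth. Definition used: TGI = concentration required for complete inhibition of growth.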

Legend:
Assay in all cases: NCI tumour cell line growth inhibition, 48 h
[1] = test system: HOP-18 NSCLC
[2] = test system: KM20L2 colon
[3] = test system: P388 leukemia
[4] = test system: P388/ADR leukemia
[5] = test system: SN12K1 renal
[6] = test system: SNB-78 CNS
[7] = test system: DMS 114 small cell lung
[8] = test system: M19-MEL melanoma
[9] = test system: XF 498 CNS

SMILES | GI50 [1] [µM] | TGI [1] [µM] | GI50 [2] [µM] | TGI [2] [µM] | GI50 [3] [µM] | TGI [3] [µM] | GI50 [4] [µM] | TGI [4] [µM] | GI50 [5] [µM] | TGI [5] [µM] | GI50 [6] [µM] | TGI [6] [µM] | TGI [7] [µM] | TGI [8] [µM] | TGI [9] [µM]
O=[N+]([O-])O.[Ga] | 5210 | > 9360 | 1270 | > 10000 | 1680 | > 10000 | 712 | > 3030 | 1210 | 6000 | > 4220 | > 4980 | – | – | –
CC(C)n1c2c([n+](C)c1/C=C/c1ccccc1)C(=O)c1ccccc1C2=O | – | – | – | 1.31 | – | – | – | – | – | – | – | 0.413 | 0.0439 | 0.321 | –
COc1ccc([C@H]2CC(=O)NCCCCN2)cc1 | – | > 100 | – | > 100 | – | – | – | – | – | – | – | > 100 | > 100 | > 100 | > 100
CC(=O)O[C@H]1C(=O)[C@@]2(C)C(C(OC(=O)c3ccccc3)[C@]3(O)CC(OC(=O)C(O)C(NC(=O)c4ccc(C)cc4)c4ccccc4)C(C)=C1C3(C)C)[C@]1(OC(C)=O)CO[C@@H]1C[C@@H]2O (stereo not given in full) | – | – | – | – | – | – | – | – | – | – | – | > 25 | < 0.0025 | 4.23 | 0.0201
O=C(O)CC/C(=N\Nc1nsc2ccccc12)c1ccc(Cl)cc1 | – | 52 | – | > 100 | – | – | – | – | – | – | – | > 100 | > 100 | > 100 | –
COP1(=O)Oc2ccccc2C(=O)C(C(F)(F)F)(C(F)(F)F)O1 (stereo not given) | – | – | – | > 100 | – | – | – | – | – | – | – | – | > 100 | > 100 | > 100
CC(C)OP(=O)(OC(C)C)C(=Nc1ccccc1)NNc1ccc([N+](=O)[O-])cc1 | – | – | – | > 100 | – | – | – | – | – | – | – | 43.1 | 69.5 | > 100 | 61
